# Assay results from ChEMBL document CHEMBL5120914, “An O-Benzyl Phosphonamidate Prodrug of Tenofovir for the Treatment of Hepatitis B Virus Infection” (J Med Chem, 2022).
# Experiments:
# [1] = Cytotoxicity against human HepG2 cells assessed as reduction in cell growth incubated for 3 days by MTT assay; assay type: toxicity, cell-based; settings: time 3 day
# Hepatitis B virus [2] = assay: Antiviral activity against Hepatitis B virus infected in human HepG2.2.15 cells assessed as inhibition of viral DNA replication at 20 uM measured after 6 days by FQ-PCR analysis relative to control; assay type: functional, HepG2 2.2.15; parameters: scale not given: the % may be the effect or the level left; settings: time 6 day
# Hepatitis B virus [3] = assay: Antiviral activity against Hepatitis B virus infected in human HepG2.2.15 cells assessed as inhibition of viral DNA replication at 1 uM measured after 6 days by FQ-PCR analysis relative to control; assay type: functional, HepG2 2.2.15; parameters: scale not given: the % may be the effect or the level left; settings: time 6 day
# Hepatitis B virus [4] = assay: Antiviral activity against Hepatitis B virus infected in human HepG2.2.15 cells assessed as inhibition of viral DNA replication measured for 9 days by FQ-PCR analysis; assay type: functional, organism-based; settings: HepG2 2.2.15, 216 h
EC50 (Hepatitis B virus [4]),Structure (SMILES),CC50 at 72 h [1],Activity (Hepatitis B virus [2]),Activity (Hepatitis B virus [3])
–,Nc1ccn([C@@H]2CS[C@H](CO)O2)c(=O)n1 [LAMIVUDINE],> 500 µM,77.32%,–
–,Cc1ccccc1COP(=O)(CO[C@H](C)Cn1cnc2c(N)ncnc21)N[C@@H](C)C(=O)OC1CCCCC1 (some centres undefined),> 500 µM,–,21.46%
–,CC(C)OC(=O)[C@H](C)NP(=O)(CO[C@H](C)Cn1cnc2c(N)ncnc21)OCc1cccc(Br)c1 (some centres undefined),> 500 µM,–,31.94%
0.145 µM,CC(C)OC(=O)[C@H](C)NP(=O)(CO[C@H](C)Cn1cnc2c(N)ncnc21)OCc1ccc(Cl)cc1 (some centres undefined),> 500 µM,–,67.85%
–,COc1ccccc1COP(=O)(CO[C@H](C)Cn1cnc2c(N)ncnc21)N[C@@H](C)C(=O)OC(C)C (some centres undefined),> 500 µM,–,53.33%
–,CC(C)OC(=O)[C@H](C)NP(=O)(CO[C@H](C)Cn1cnc2c(N)ncnc21)OCc1ccccc1C(F)(F)F (some centres undefined),> 500 µM,–,46.76%
–,Cc1ccccc1COP(=O)(CO[C@H](C)Cn1cnc2c(N)ncnc21)NCC(=O)OC(C)C (some centres undefined),> 500 µM,–,–
0.186 µM,Cc1ccc(COP(=O)(CO[C@H](C)Cn2cnc3c(N)ncnc32)N[C@@H](C)C(=O)OC(C)C)cc1 (some centres undefined),> 500 µM,–,65.32%
–,Cc1ccccc1COP(=O)(CO[C@H](C)Cn1cnc2c(N)ncnc21)N[C@@H](C)C(=O)OC1CCCC1 (some centres undefined),> 500 µM,–,41.01%
0.078 µM,CC(C)OC(=O)[C@H](C)NP(=O)(CO[C@H](C)Cn1cnc2c(N)ncnc21)OCc1ccccc1[N+](=O)[O-] (some centres undefined),> 500 µM,–,79.74%
0.181 µM,Cc1cccc(COP(=O)(CO[C@H](C)Cn2cnc3c(N)ncnc32)N[C@@H](C)C(=O)OC(C)C)c1 (some centres undefined),> 500 µM,–,69.34%
–,CC(C)OC(=O)[C@H](C)NP(=O)(CO[C@H](C)Cn1cnc2c(N)ncnc21)OCc1ccc(Br)cc1 (some centres undefined),> 500 µM,–,–
–,COc1ccc(COP(=O)(CO[C@H](C)Cn2cnc3c(N)ncnc32)N[C@@H](C)C(=O)OC(C)C)cc1 (some centres undefined),> 500 µM,–,41.64%
0.027 µM,CC(C)OC(=O)[C@H](C)NP(=O)(CO[C@H](C)Cn1cnc2c(N)ncnc21)OCc1cccc(F)c1 (some centres undefined),> 500 µM,–,68.11%
–,COc1cccc(COP(=O)(CO[C@H](C)Cn2cnc3c(N)ncnc32)N[C@@H](C)C(=O)OC(C)C)c1 (some centres undefined),> 500 µM,–,46.33%
0.827 µM,COC(=O)C[C@H](NP(=O)(CO[C@H](C)Cn1cnc2c(N)ncnc21)OCc1ccccc1C)C(=O)OC (some centres undefined),> 500 µM,–,69.01%
0.618 µM,COC(=O)[C@H](C)NP(=O)(CO[C@H](C)Cn1cnc2c(N)ncnc21)OCc1ccccc1C (some centres undefined),> 500 µM,–,65.23%
–,CC(C)OC(=O)[C@H](C)NP(=O)(CO[C@H](C)Cn1cnc2c(N)ncnc21)OCc1ccc(F)cc1 (some centres undefined),> 500 µM,–,43.65%
0.49 µM,Cc1ccccc1COP(=O)(CO[C@H](C)Cn1cnc2c(N)ncnc21)N[C@@H](Cc1ccccc1)C(=O)OC(C)C (some centres undefined),> 500 µM,–,63.8%
